# Laboratory results as given in ChEMBL document CHEMBL1130499, “Synthesis of halogenated/nitrated flavone derivatives and evaluation of their affinity for the central benzodiazepine receptor” (Bioorg Med Chem Lett, 1997).
# Molecular target: GABA-A receptor; anion channel
# Assay: Displacement of [3H]flunitrazepine binding from GABA-A central benzodiazepine receptor of rat cerebral cortical membrane
row,Ki [nM],SMILES
1,> 10000,O=c1cc(-c2ccccc2[N+](=O)[O-])oc2ccc([N+](=O)[O-])cc12
2,275,O=c1cc(-c2ccccc2)oc2ccc([N+](=O)[O-])cc12
3,285,O=c1cc(-c2cccc([N+](=O)[O-])c2)oc2ccccc12
4,> 20000,O=c1cc(-c2ccc(Br)cc2)oc2ccccc12
5,19,O=c1cc(-c2cccc(Br)c2)oc2ccc(Br)cc12
6,200,O=c1cc(-c2ccc([N+](=O)[O-])cc2)oc2ccc(Br)cc12
7,413,O=c1cc(-c2cccc(Br)c2)oc2ccccc12
8,180,O=c1cc(-c2cccc([N+](=O)[O-])c2)oc2ccc(F)cc12
9,208,O=c1cc(-c2ccccc2[N+](=O)[O-])oc2ccc(Br)cc12
10,8,O=c1cc(-c2cccc([N+](=O)[O-])c2)oc2ccc(Cl)cc12
11,25,O=c1cc(-c2cccc(Br)c2)oc2ccc([N+](=O)[O-])cc12
12,75,O=c1cc(-c2ccccc2)oc2ccc(Br)cc12 [6-BROMOFLAVONE]
13,164,O=c1cc(-c2ccccc2)oc2ccc(Cl)cc12 [6-CHLOROFLAVONE]

# Second part, the compound before the results:
row,SMILES,Ki [nM]
1,O=c1cc(-c2cccc([N+](=O)[O-])c2)oc2ccc([N+](=O)[O-])cc12,26
2,O=c1cc(-c2ccccc2[N+](=O)[O-])oc2ccccc12,> 20000
3,O=c1cc(-c2cccc(Cl)c2)oc2ccccc12,614
4,O=c1c(Br)c(-c2cccc([N+](=O)[O-])c2)oc2ccccc12,> 20000
5,O=c1c(Br)c(-c2ccccc2)oc2ccc(Br)cc12,> 75000
6,O=c1cc(-c2ccccc2)oc2ccc(F)cc12,4500
7,O=c1c(Br)c(-c2ccccc2)oc2ccccc12,> 75000
8,O=c1cc(-c2cc([N+](=O)[O-])cc([N+](=O)[O-])c2)oc2ccccc12,> 20000
9,O=c1cc(-c2ccc([N+](=O)[O-])cc2)oc2ccc([N+](=O)[O-])cc12,> 10000
10,O=c1cc(-c2ccccc2)oc2ccccc12 [FLAVONE],1000
